ChEMBL document CHEMBL1133300, “Natural product derived inhibitors of lipoprotein associated phospholipase A2, synthesis and activity of analogues of SB-253514” (Bioorg Med Chem Lett, 2000)
pIC50: −log10 of the molar value.

Columns and labels:
[1] = The compound was evaluated for time dependent inhibitory activity against Lipoprotein associated Phospholipase A2 (Lp-PLA2) enzyme after 10 min incubation.
[2] = The compound was evaluated for time dependent inhibitory activity against Lipoprotein associated Phospholipase A2 (Lp-PLA2) enzyme after 10 min incubation; Inactive

pIC50 [1]	IC50 [2]	Structure (SMILES)
7.29		CCCCCCCCCCC[C@H](CC(=O)NC(=O)/C=C1/OC(=O)N2CCCC12)O[C@@H]1O[C@@H](C)[C@H](O)[C@@H](O)[C@H]1O (stereo partly drawn)
7.92		CCCCCCCCCCCCCCCCNC(=O)/C=C1/OC(=O)N2CCC[C@H]12
	Not Active	CCCCCCCC(=O)OCCCCC#C/C=C1/OC(=O)N2CCC[C@@H]12
7.60		CCCCCCCCCCCCCCCCNC(=O)/C=C1/OC(=O)N2CCC[C@@H]12
7.55		CCCCCCCCCCCCCCNC(=O)/C=C1/OC(=O)N2CCC[C@@H]12
6.77		CCCCCCCCCCCCNC(=O)/C=C1/OC(=O)N2CCC[C@@H]12
	Not Active	O=C1O/C(=C/C#CCCCCO)[C@@H]2CCCN12
	Not Active	CCCCCCCCCCCCCCC#C/C=C1/OC(=O)N2CCC[C@@H]12
